Target: AldO (Streptomyces coelicolor, UniProt Q9ZBU1)
Assay: HRP-coupled H2O2 assay, thermostability and temperature optimum
Format: biochemical
Conditions: 10 mM xylitol; 50 mM potassium phosphate pH 7.5

Sequence of AldO (Q9ZBU1 whole entry): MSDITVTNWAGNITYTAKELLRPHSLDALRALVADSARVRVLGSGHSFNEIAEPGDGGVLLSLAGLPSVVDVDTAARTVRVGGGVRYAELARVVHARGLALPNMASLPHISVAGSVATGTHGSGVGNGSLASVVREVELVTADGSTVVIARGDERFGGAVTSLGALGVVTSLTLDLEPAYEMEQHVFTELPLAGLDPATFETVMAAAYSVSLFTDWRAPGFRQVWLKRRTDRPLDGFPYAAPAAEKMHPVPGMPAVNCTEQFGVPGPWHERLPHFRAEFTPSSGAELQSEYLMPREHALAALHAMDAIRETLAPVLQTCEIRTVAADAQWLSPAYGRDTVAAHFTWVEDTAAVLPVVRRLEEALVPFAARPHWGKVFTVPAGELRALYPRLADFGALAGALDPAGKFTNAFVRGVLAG

OC[C@@H](O)[C@H](O)[C@@H](O)CO [xylitol]
HRP-coupled H2O2 assay, thermostability and temperature optimum: Oxidase activity with xylitol as substrate was measured after enzyme solutions had been incubated

Source: article PMC3371188 (Applied Microbiology and Biotechnology, 2012)
